The nature of series [1]: In vivo pharmacokinetic study in rats, IV and PO dosing (Example 6). The settings on record: rat; for AUC(0-inf) / clearance / half-life / Vd / Cmax / Tmax / concentration at 4 hr / bioavailability / concentration at 2 hr: plasma; for Vd: read-out: Vz; for concentration at 4 hr: Cmin at 4 hr; for bioavailability: 200 mg/kg, PO vs IV AUC0-∞. How it is done: The pharmacokinetics of exemplary compounds was determined by comparison with 4-hydroxybutyric acid by dosing the compounds in rats according to the following study design and sampling procedure.
The results of the in vivo studies are disclosed in the following table (Table 2): […]

Series [2] in a line: In vivo pharmacokinetic study in rats, oral dosing (Example 7). The settings on record: rat, 200 mg/kg PO; for AUC(0-inf) / Cmax / Tmax / half-life: in vivo, mean; for AUC0-∞ value relative to 4-hydroxybutyric acid, sodium salt: sodium salts. On the procedure: In a separate study, the pharmacokinetics of exemplary compounds IV-a, IV-b and IV-d was determined by comparison with 4-hydroxybutyric acid by dosing the compounds in rats orally. The study design was the same as for Example 6, except that sampling time points were as follows: predose, 5 min, 15 min, 30 min, 1 hour, 2 hours, 3 hours, 4 hours, and 5 hours (the 5 hour levels were not included in the for PK calculations). The results of the in vivo studies are disclosed in the following table (Table 3): […]

For series [3] the following is noted: in humans; cited from earlier work.
The mark [4] stands for this setting: 200 mg/kg IV, mean, calculated up to 2 hr.
The mark [5] stands for this setting: 200 mg/kg PO, mean, calculated up to 4 hr.
Where [6] appears, read: 200 mg/kg IV, mean, Cmin at 2 hr.

Structures are written as SMILES. Where a name gives a salt, the structure may show the parent alone.

As for `O=C(O)CCCO` [4-hydroxybutyric acid, sodium salt, sodium salt of 4-hydroxybutyric acid, reference compound], in series [1] (200 mg/kg IV, mean), the AUC(0-inf) stood at 427 µg·h/mL, the clearance stood at 8 mL/min/kg and the Vd was 0.2 L/kg. Further, in series [1] (setting [4]), the half-life is 15.6 min. Further, in series [1] (200 mg/kg PO, mean), the AUC(0-inf) was 170 µg·h/mL, the Cmax worked out at 150 µg/mL, the time of peak concentration (Tmax) is 30 min and the concentration at 4 hr stood at 2 µg/mL. For the same compound, in series [1] (setting [5]), the half-life is 36.6 min. The bioavailability in series [1] stood at 40%. Also, the Cmin in series [1] (setting [6]) is 8′ ug/mL. For the same compound, in series [2], the AUC(0-inf) came out at 165 µg·h/mL, the Cmax was found to be 94 µg/mL, the time of peak concentration (Tmax) stood at 47.4 min and the half-life was 60.6 min. Also, the half life in series [3] is 30 to 60 min.
For `[2H]C([2H])(O)CCC(=O)O` [IV-a, sodium salt], in series [2], the AUC(0-inf) amounted to 335 µg·h/mL, the Cmax was 168 µg/mL, the Tmax stood at 70.2 min and the half-life is 28.8 min. Also, in series [2], the “AUC0-∞ fold versus 4-hydroxybutyric acid, sodium salt” value is recorded as “(2.0X)”; the “Cmax fold versus 4-hydroxybutyric acid, sodium salt” value is “(1.8X)”; the “AUC0-∞ value relative to 4-hydroxybutyric acid, sodium salt” value is reported as “considerably increased”.
For the compound `[2H]C([2H])(O)CC([2H])([2H])C(=O)[O-].[Na+]` [IV-b, sodium salt, Sodium 2,2,4,4-d4-4-hydroxybutanoate], in series [1] (200 mg/kg IV, mean), the total exposure AUC(0-inf) is 651 µg·h/mL, the clearance was 5 mL/min/kg and the Vd came to 0.3 L/kg. In series [1] (setting [6]), this compound returned a concentration at 2 hr of 76 µg/mL. Also, the half-life in series [1] (setting [4]) was 37.8 min. Also, in series [1] (200 mg/kg PO, mean), the AUC(0-inf) amounted to 260 µg·h/mL, the highest level (Cmax) was 151 µg/mL, the Tmax was 37.8 min and the concentration at 4 hr came to 5 µg/mL. Besides, the half-life in series [1] (setting [5]) was 56.4 min. The compound further registered a bioavailability in series [1] of 40%. In addition, in series [1] (200 mg/kg PO), the “AUC0-∞ fold versus 4-hydroxybutyric acid, sodium salt” value is given as “(+1.5X)”. Further, the “pharmacokinetic stability relative to 4-hydroxybutyric acid, sodium salt” value in series [1] (from AUC0-∞ and t1/2 following IV administration) is listed as “considerably increased”. Also, in series [2], the AUC(0-inf) was determined as 407 µg·h/mL, the maximum concentration (Cmax) stood at 201 µg/mL, the time of peak concentration (Tmax) was 90 min and the half-life is 27.6 min. For the same compound, in series [2], the “AUC0-∞ fold versus 4-hydroxybutyric acid, sodium salt” value is “(2.5X)”; the “Cmax fold versus 4-hydroxybutyric acid, sodium salt” value was “(2.1X)”; the “AUC0-∞ value relative to 4-hydroxybutyric acid, sodium salt” value is recorded as “considerably increased”.
In the case of `[2H]C([2H])(O)C([2H])([2H])C([2H])([2H])C(=O)O` [IV-d, sodium salt], in series [2], the AUC(0-inf) came out at 404 µg·h/mL, the peak level (Cmax) was 188 µg/mL, the Tmax was determined as 100 min and the half-life was 27.6 min. In series [2], the “AUC0-∞ fold versus 4-hydroxybutyric acid, sodium salt” value is recorded as “(2.4X)”; the “Cmax fold versus 4-hydroxybutyric acid, sodium salt” value is given as “(2.0X)”; the “AUC0-∞ value relative to 4-hydroxybutyric acid, sodium salt” value is reported as “considerably increased”.
Turning to `[2H]C([2H])(CCO)C(=O)[O-].[Na+]` [sodium 2,2-dideutero-4-hydroxybutanoate], in series [1] (200 mg/kg IV, mean), the AUC(0-inf) came out at 476 µg·h/mL, the clearance amounted to 7 mL/min/kg and the Vd worked out at 0.2 L/kg. The concentration at 2 hr in series [1] (setting [6]) is 19 µg/mL. The half-life in series [1] (setting [4]) was 19.8 min. In addition, in series [1] (200 mg/kg PO, mean), the AUC(0-inf) came to 193 µg·h/mL, the Cmax stood at 153 µg/mL, the Tmax turned out to be 37.8 min and the concentration at 4 hr came to 1 µg/mL. In series [1] (setting [5]), the half-life was 35.4 min. Also, the bioavailability in series [1] came out at 41%. The “AUC0-∞ fold versus 4-hydroxybutyric acid, sodium salt” value in series [1] (200 mg/kg PO) is listed as “(+1.1X)”.
